Test results: patent publication US20160002217A1, “FUNGICIDAL 3--OXADIAZOLONE DERIVATIVES” (BAYER CROPSCIENCE AG, priority 2013, published 2016)
Read-outs that look alike come from different tables or passages of the source. Marks after values point to notes of the source that are not given here.

Tests used:
[1] = Measurement of log P values by HPLC on reversed phase columns (EEC directive 79/831 Annex V.A8); settings: for chromatographic logP: pH 2.7; for LogP: Table 1, compounds of formula (I), method [a]: LC-MS at pH 2.7, 0.1% formic acid in water / acetonitrile gradient
Septoria tritici = experiment: In vivo preventive test on Septoria tritici (leaf spot on wheat); settings: wheat plants, preventive spray, 500 ppm of active ingredient, evaluated 24 days after inoculation
Protocol: (§1) The tested active ingredients are prepared by homogenization in a mixture of acetone/Dimethyl sulfoxide/Tween®, and then diluted with water to obtain the desired active material concentration.
(§2) The young plants of wheat are treated by spraying the active ingredient prepared as described above. Control plants are treated only with an aqueous solution of acetone/Dimethyl sulfoxide/Tween®.
After 24 hours, the plants are contaminated by spraying the leaves with an aqueous suspension of Septoria tritici spores. The contaminated wheat plants are incubated for 72 hours at 18° C. and at 100% relative humidity and then for 21 days at 20° C. and at 90% relative humidity.
The test is evaluated 24 days after the inoculation. 0% means an efficacy which corresponds to that of the control plants while an efficacy of 100% means that no disease is observed.

Pyrenophora teres = experiment: In vivo preventive test on Pyrenophora teres (net blotch on barley); settings: barley plants, preventive spray, 500 ppm of active ingredient, evaluated 14 days after inoculation
Protocol: as §1
The young plants of barley are treated by spraying the active ingredient prepared as described above. Control plants are treated only with an aqueous solution of acetone/Dimethyl sulfoxide/Tween®.
After 24 hours, the plants are contaminated by spraying the leaves with an aqueous suspension of Pyrenophora teres spores. The contaminated barley plants are incubated for 48 hours at 20° C. and at 100% relative humidity and then for 12 days at 20° C. and at 70-80% relative humidity.
The test is evaluated 14 days after the inoculation. 0% means an efficacy which corresponds to that of the control plants while an efficacy of 100% means that no disease is observed.

Alternaria brassicae = experiment: In vivo preventive test on Alternaria brassicae (leaf spot on radish); settings: radish plants, preventive spray, 500 ppm of active ingredient, evaluated 6 days after inoculation
Protocol: as §1
The young plants of radish are treated by spraying the active ingredient prepared as described above. Control plants are treated only with an aqueous solution of acetone/Dimethyl sulfoxide/Tween®.
After 24 hours, the plants are contaminated by spraying the leaves with an aqueous suspension of Alternaria brassicae spores. The contaminated radish plants are incubated for 6 days at 20° C. and at 100% relative humidity.
The test is evaluated 6 days after the inoculation. 0% means an efficacy which corresponds to that of the control plants while an efficacy of 100% means that no disease is observed.

[2] = pH 2.7
Phytophthora infestans = assay type: in vivo; settings: tomato plants, preventive spray, 500 ppm of active ingredient, evaluated 5 days after inoculation
Plasmopara viticola = experiment: Plasmopara test (grapevines) / preventive; assay type: in vivo; settings: grapevine plants, preventive spray, 10 ppm of active ingredient, evaluated 6 days after inoculation
Protocol: Solvent: 24.5 parts by weight of acetone • 24.5 parts by weight of dimethylacetamide
Emulsifier: 1 part by weight of alkylaryl polyglycol ether
To produce a suitable preparation of active compound, 1 part by weight of active compound is mixed with the stated amounts of solvent and emulsifier, and the concentrate is diluted with water to the desired concentration.
To test for preventive activity, young plants are sprayed with the preparation of active compound at the stated rate of application. After the spray coating has dried on, the plants are inoculated with an aqueous spore suspension of Plasmopara viticola and then remain for 1 day in an incubation cabinet at approximately 20° C. and a relative atmospheric humidity of 100%. The plant is subsequently placed for 4 days in a greenhouse at approximately 21° C. and a relative atmospheric humidity of approximately 90%. The plants are then misted and placed for 1 day in an incubation cabinet.
The test is evaluated 6 days after the inoculation. 0% means an efficacy which corresponds to that of the untreated control, while an efficacy of 100% means that no disease is observed.

Pyricularia oryzae = assay type: in vivo; settings: rice plants, preventive spray, 500 ppm of active ingredient, evaluated 6 days after inoculation
Uromyces appendiculatus = experiment: In vivo preventive test on Uromyces appendiculatus (bean rust); settings: bean plants, preventive spray, 500 ppm of active ingredient, evaluated 11 days after inoculation
Protocol: as §1
The young plants of bean are treated by spraying the active ingredient prepared as described above. Control plants are treated only with an aqueous solution of acetone/Dimethyl sulfoxide/Tween®.
After 24 hours, the plants are contaminated by spraying the leaves with an aqueous suspension of Uromyces appendiculatus spores. The contaminated bean plants are incubated for 24 hours at 20° C. and at 100% relative humidity and then for 10 days at 20° C. and at 70-80% relative humidity.
(§3) The test is evaluated 11 days after the inoculation. 0% means an efficacy which corresponds to that of the control plants while an efficacy of 100% means that no disease is observed.

Puccinia recondita = experiment: In vivo preventive test on Puccinia recondita (brown rust on wheat); settings: wheat plants, preventive spray, 500 ppm of active ingredient, evaluated 11 days after inoculation
Protocol: as §1, §2
After 24 hours, the plants are contaminated by spraying the leaves with an aqueous suspension of Puccinia recondita spores. The contaminated wheat plants are incubated for 24 hours at 20° C. and at 100% relative humidity and then for 10 days at 20° C. and at 70-80% relative humidity.
as §3

Row | Compound | chromatographic logP [1] | LogP [2] | % efficacy (Phytophthora infestans) | other results
1 | Cn1oc(=O)nc1/C(=N\OCc1cccc(N)n1)c1ccccn1 [Example 9, 3-[(Z)-{[(6-aminopyridin-2-yl)methoxy]imino}(pyridine-2-yl)methyl]-2-methyl-1,2,4-oxadiazol-5(2H)-one] | 0.41 |  |  | 
2 | Cn1c(C(=NOCc2cccc(NC(=O)OC(C)(C)C)n2)c2ccccn2)noc1=O [Example 13] |  | 3.17^[a] | 98% | % efficacy (Septoria tritici): 75%; % efficacy (Pyrenophora teres): 77%; % efficacy (Alternaria brassicae): 91%
3 | Cn1c(C(=NOCc2csc(NC(=O)OC(C)(C)C)n2)c2ccsc2)noc1=O [Example 16] |  | 3.39^[a] | 100% | % efficacy (Plasmopara viticola): 99%
4 | C#CCCOC(=O)Nc1cccc(CO/N=C(/c2ccccn2)c2nc(=O)on2C)n1 [Example 17, But-3-yn-1-yl {6-[({[(Z)-(2-methyl-5-oxo-2,5-dihydro-1,2,4-oxadiazol-3-yl)(pyridine-2-yl)methylene]amino}oxy)methyl]pyridin-2-yl}carbamate] | 2.1 |  |  | 
5 | C#CCCOC(=O)Nc1cccc(CON=C(c2ccccn2)c2nc(=O)on2CC)n1 [Example 19] |  |  |  | LogP [1]: 2.35^[a]
6 | Cn1oc(=O)nc1/C(=N\OCc1cccc(NC(=O)OC(C)(C)C)n1)c1ccccn1 [Example 22, tert-butyl {6-[({[(Z)-(2-methyl-5-oxo-2,5-dihydro-1,2,4-oxadiazol-3-yl)(pyridine-2-yl)methylene]amino}oxy)methyl]pyridin-2-yl}carbamate] | 2.68 |  | 99% | % efficacy (Pyricularia oryzae): 75%; % efficacy (Uromyces appendiculatus): 100%; % efficacy (Puccinia recondita): 88%
7 | Cn1c(C(=NOCc2csc(N)n2)c2ccsc2)noc1=O [Example 23] |  |  | 98% | LogP [1]: 1.35^[a]
8 | CC(C)(C)OC(=O)Nc1cccc(CON=C(c2cccnc2)c2noc(=O)[nH]2)n1 [Example 32, tert-butyl {6-[({[(5-oxo-4,5-dihydro-1,2,4-oxadiazol-3-yl)(pyridin-3-yl)methylene]amino}oxy)methyl]pyridin-2-yl}carbamate] | 2.59 |  |  | 
9 | Cn1c(C(=NOCc2cccc(NC(=O)OC(C)(C)C)n2)c2cccnc2)noc1=O [Example 33, tert-butyl {6-[({[(4-methyl-5-oxo-4,5-dihydro-1,2,4-oxadiazol-3-yl)(pyridin-3-yl)methylene]amino}oxy)methyl]pyridin-2-yl}carbamate] | 2.75 |  | 78% | 
10 | CCCCCOC(=O)Nc1cccc(CON=C(c2ccncc2)c2noc(=O)n2C)n1 [Example 44] |  |  | 98% | LogP [1]: 3.29^[a]
11 | C#CCCOC(=O)Nc1cccc(CON=C(c2ccncc2)c2noc(=O)n2C)n1 [Example 45] |  | 2.21^[a] | 100% | % efficacy (Plasmopara viticola): 91%
12 | C#CCCOC(=O)Nc1cccc(CON=C(c2cccnc2)c2nc(=O)on2C)n1 [Example 56] |  | 1.88^[a] | 89% | 
13 | CCCCOC(=O)Nc1cccc(CON=C(c2cccnc2)c2nc(=O)on2C)n1 [Example 57] |  | 2.47^[a] | 95% | 
14 | CCCCC(=O)Nc1cccc(CON=C(c2cccnc2)c2noc(=O)n2C)n1 [Example 59] |  | 2.51^[a] | 78% | 
15 | CCCCCC(=O)Nc1cccc(CON=C(c2ncccn2)c2noc(=O)n2C)n1 [Example 60] |  | 2.61^[a] | 90% | 
16 | CCCCCC(=O)Nc1cccc(CON=C(c2cccnc2)c2nc(=O)on2C)n1 [Example 63] |  | 2.39^[a] | 75% | 
17 | Cn1c(C(=NOCc2csc(NC(=O)COc3ccccc3)n2)c2ccsc2)noc1=O [Example 67] |  | 3.22^[a] | 98% | 
18 | Cn1c(C(=NOCc2csc(NC(=O)C3CCc4ccccc4O3)n2)c2ccsc2)noc1=O (stereo not drawn) [Example 69] |  | 3.62^[a] | 75% | % efficacy (Plasmopara viticola): 92%
19 | CCCC(C)C(=O)Nc1nc(CON=C(c2ccsc2)c2noc(=O)n2C)cs1 (stereo not drawn) [Example 71] |  | 3.39^[a] | 100% | 
20 | CCCCCC(=O)Nc1nc(CON=C(c2ccsc2)c2noc(=O)n2C)cs1 [Example 73] |  | 3.43^[a] | 100% | 
21 | CCCCCOC(=O)Nc1nc(CON=C(c2cccs2)c2noc(=O)n2C)cs1 [Example 74] |  | 3.79^[a] | 85% | 
22 | CC(Oc1ccccc1)C(=O)Nc1nc(CON=C(c2cccs2)c2noc(=O)n2C)cs1 (stereo not drawn) [Example 80] |  | 3.42^[a] | 100% | % efficacy (Plasmopara viticola): 100%
23 | CCCCOC(=O)Nc1cccc(CON=C(c2ccncc2)c2noc(=O)n2C)n1 [Example 82] |  | 2.80^[a] | 100% | 
24 | CCCCC(=O)Nc1cccc(CON=C(c2ccncc2)c2noc(=O)n2C)n1 [Example 83] |  | 2.34^[a] | 100% | 
25 | CCCCCC(=O)Nc1cccc(CON=C(c2ccncc2)c2noc(=O)n2C)n1 [Example 84] |  | 2.71^[a] | 100% | 
26 | CC(C)(C)OC(=O)Nc1cccc(CO/N=C(\C#N)c2ccccn2)n1 [Example IV-02, tert-butyl {6-[({[(Z)-cyano(pyridin-2-yl)methylene]amino}oxy)methyl]pyridin-2-yl}carbamate] | 3.5 |  |  | 
27 | CC(C)(C)OC(=O)Nc1cccc(CON=C(C#N)c2cccnc2)n1 [Example IV-07, tert-butyl {6-[({[cyano(pyridin-3-yl)methylene]amino}oxy)methyl]pyridin-2-yl}carbamate] | 3.19 |  |  | 
28 | CC(C)(C)OC(=O)Nc1cccc(CON=C(C(N)=NO)c2cccnc2)n1 [Example V-03, tert-butyl {6-[({[2-amino-2-(hydroxyimino)-1-(pyridin-3-yl)ethylidene]amino}oxy)methyl]pyridin-2-yl}carbamate] | 1.81 |  |  | 
29 | CN(O)C(=N)/C(=N\OCc1cccc(NC(=O)OC(C)(C)C)n1)c1ccccn1 [Example VI-01, tert-butyl (6-{[({(1Z)-2-[hydroxy(methyl)amino]-2-imino-1-(pyridin-2-yl)ethylidene}amino)oxy]methyl}pyridin-2-yl)carbamate] | 1.54 |  |  | 
